Measured values: ChEMBL document CHEMBL3885881, “DrugMatrix”

Species: Rattus norvegicus
Assay: DrugMatrix - Regimen: Daily Repeat
Type: toxicity, organism-based, Sprague-Dawley
Parameters: regimen Daily Repeat, gender Male, age 6-8 weeks
Conditions: in vivo, po, route oral GAVAGE, vehicle 100 % SALINE; for ABSOLUTE BASOPHIL / ABSOLUTE EOSINOPHIL / ABSOLUTE LYMPHOCYTE / ABSOLUTE MONOCYTE / ABSOLUTE SEGMENTED NEUTROPHIL / BASOPHIL / EOSINOPHIL / ERYTHROCYTE COUNT / HEMATOCRIT / HEMOGLOBIN / LEUKOCYTE COUNT / LYMPHOCYTE / MEAN CORPUSCULAR HEMOGLOBIN / MEAN CORPUSCULAR HEMOGLOBIN CONCENTRATION / MONOCYTE / NEUTROPHIL / NUCLEATED RED BLOOD CELLS / PLATELET COUNT: tissue Blood; for ALANINE AMINOTRANSFERASE / ALBUMIN / ALKALINE PHOSPHATASE / ASPARTATE AMINOTRANSFERASE / BLOOD UREA NITROGEN / CARBON DIOXIDE / CHOLESTEROL / CREATINE PHOSPHOKINASE / CREATININE / GLUCOSE / LACTATE DEHYDROGENASE / LIPASE / POTASSIUM / SODIUM / TOTAL BILIRUBIN / TOTAL PROTEIN / URIC ACID: tissue Plasma
[1] = 0 mg/kg, 72 h, dose level Control, time 3 day
[2] = 0 mg/kg, 120 h, dose level Control, time 5 day
[3] = 330 mg/kg, 72 h, dose level Low, time 3 day

Nc1nc2c(ncn2COCCO)c(=O)[nH]1 [ACYCLOVIR]
ABSOLUTE BASOPHIL [1]: 0 CELLS/uL
ABSOLUTE EOSINOPHIL [1]: 37 CELLS/uL
ABSOLUTE LYMPHOCYTE [1]: 12359.33 CELLS/uL
ABSOLUTE MONOCYTE [1]: 122.67 CELLS/uL
ABSOLUTE SEGMENTED NEUTROPHIL [1]: 847.67 CELLS/uL
BASOPHIL [1]: 0%
EOSINOPHIL [1]: 0.33%
ERYTHROCYTE COUNT [1]: 5.75 x10E6/uL
HEMATOCRIT [1]: 36.08%
HEMOGLOBIN [1]: 14.07 G/DL
LEUKOCYTE COUNT [1]: 13.37 x10E3/uL
LYMPHOCYTE [1]: 92.5%
MEAN CORPUSCULAR HEMOGLOBIN [1]: 24.47 pg
MEAN CORPUSCULAR HEMOGLOBIN CONCENTRATION [1]: 38.98 G/DL
MONOCYTE [1]: 1%
NEUTROPHIL [1]: 6.17%
NUCLEATED RED BLOOD CELLS [1]: 0.17 /100WBC
PLATELET COUNT [1]: 1202.17 x10E3/uL
ALANINE AMINOTRANSFERASE [1]: 50.67 u/L
ALBUMIN [1]: 4.13 G/DL
ALKALINE PHOSPHATASE [1]: 356.33 u/L
ASPARTATE AMINOTRANSFERASE [1]: 78.17 u/L
BLOOD UREA NITROGEN [1]: 14.17 mg/dL
CARBON DIOXIDE [1]: 31.33 mmol/L
CHOLESTEROL [1]: 76.5 mg/dL
CREATINE PHOSPHOKINASE [1]: 248.33 u/L
CREATININE [1]: 0.2 mg/dL
GLUCOSE [1]: 144 mg/dL
LACTATE DEHYDROGENASE [1]: 107 u/L
LIPASE [1]: 9.83 u/L
POTASSIUM [1]: 6.75 MEQ/L
SODIUM [1]: 142 MEQ/L
TOTAL BILIRUBIN [1]: 0.18 mg/dL
TOTAL PROTEIN [1]: 5.98 G/DL
URIC ACID [1]: 1.42 mg/dL
ABSOLUTE BASOPHIL [2]: 0 CELLS/uL
ABSOLUTE EOSINOPHIL [2]: 0 CELLS/uL
ABSOLUTE LYMPHOCYTE [2]: 8681.17 CELLS/uL
ABSOLUTE MONOCYTE [2]: 79.83 CELLS/uL
ABSOLUTE SEGMENTED NEUTROPHIL [2]: 689 CELLS/uL
BASOPHIL [2]: 0%
EOSINOPHIL [2]: 0%
ERYTHROCYTE COUNT [2]: 5.49 x10E6/uL
HEMATOCRIT [2]: 33.55%
HEMOGLOBIN [2]: 13.1 G/DL
LEUKOCYTE COUNT [2]: 9.45 x10E3/uL
LYMPHOCYTE [2]: 92.33%
MEAN CORPUSCULAR HEMOGLOBIN [2]: 23.92 pg
MEAN CORPUSCULAR HEMOGLOBIN CONCENTRATION [2]: 39.07 G/DL
MONOCYTE [2]: 0.67%
NEUTROPHIL [2]: 7%
NUCLEATED RED BLOOD CELLS [2]: 0.17 /100WBC
PLATELET COUNT [2]: 1001.17 x10E3/uL
ALANINE AMINOTRANSFERASE [2]: 49.33 u/L
ALBUMIN [2]: 4.07 G/DL
ALKALINE PHOSPHATASE [2]: 300.33 u/L
ASPARTATE AMINOTRANSFERASE [2]: 83.5 u/L
BLOOD UREA NITROGEN [2]: 16 mg/dL
CARBON DIOXIDE [2]: 29.67 mmol/L
CHOLESTEROL [2]: 74.33 mg/dL
CREATINE PHOSPHOKINASE [2]: 489.67 u/L
CREATININE [2]: 0.35 mg/dL
GLUCOSE [2]: 151 mg/dL
LACTATE DEHYDROGENASE [2]: 133.67 u/L
LIPASE [2]: 11.17 u/L
POTASSIUM [2]: 5.5 MEQ/L
SODIUM [2]: 145.7 MEQ/L
TOTAL BILIRUBIN [2]: 0.2 mg/dL
TOTAL PROTEIN [2]: 6.05 G/DL
URIC ACID [2]: 0.68 mg/dL
ABSOLUTE BASOPHIL [3]: 0 CELLS/uL
ABSOLUTE EOSINOPHIL [3]: 0 CELLS/uL
ABSOLUTE LYMPHOCYTE [3]: 14421.67 CELLS/uL
ABSOLUTE MONOCYTE [3]: 118.67 CELLS/uL
ABSOLUTE SEGMENTED NEUTROPHIL [3]: 559.67 CELLS/uL
BASOPHIL [3]: 0%
EOSINOPHIL [3]: 0%
ERYTHROCYTE COUNT [3]: 5.8 x10E6/uL
HEMATOCRIT [3]: 35.43%
HEMOGLOBIN [3]: 13.97 G/DL
LEUKOCYTE COUNT [3]: 15.1 x10E3/uL
LYMPHOCYTE [3]: 95%
MEAN CORPUSCULAR HEMOGLOBIN [3]: 24.1 pg
MEAN CORPUSCULAR HEMOGLOBIN CONCENTRATION [3]: 39.4 G/DL
MONOCYTE [3]: 0.67%
NEUTROPHIL [3]: 4.33%
NUCLEATED RED BLOOD CELLS [3]: 0 /100WBC
PLATELET COUNT [3]: 1133.33 x10E3/uL
ALANINE AMINOTRANSFERASE [3]: 50 u/L
ALBUMIN [3]: 4.3 G/DL
ALKALINE PHOSPHATASE [3]: 334 u/L
ASPARTATE AMINOTRANSFERASE [3]: 88.67 u/L
BLOOD UREA NITROGEN [3]: 17.33 mg/dL
CARBON DIOXIDE [3]: 25.67 mmol/L
CHOLESTEROL [3]: 70 mg/dL
CREATINE PHOSPHOKINASE [3]: 328.33 u/L
CREATININE [3]: 0.34 mg/dL
GLUCOSE [3]: 183 mg/dL
LACTATE DEHYDROGENASE [3]: 177.67 u/L
LIPASE [3]: 10.33 u/L
POTASSIUM [3]: 5.7 MEQ/L
SODIUM [3]: 144.1 MEQ/L
TOTAL BILIRUBIN [3]: 0.13 mg/dL
TOTAL PROTEIN [3]: 6.17 G/DL
URIC ACID [3]: 2.2 mg/dL
